{"source": "patent US20210380595A1", "about": "(ARAXES PHARMA LLC, priority 2018, published 2021)"}
{"molecular_target": "T1, KRAS G12C 1-169, his-tagged protein, GDP-loaded (Homo sapiens, UniProt P01116, G12C)", "T1 construct": "KRAS G12C 1-169, his-tagged protein, GDP-loaded", "assay": "Biochemical assay: covalent modification of KRAS G12C measured by mass spectrometry (RapidFire/TOF or Q-Exactive); further: time not given here", "type": "binding", "conditions": "tested at 32 μM", "outline": "(§1)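 GDP-loaded KRAS G12C 1-169 (his-tagged, 2 μM or 0.5 μM in 20 mM Hepes, 150 mM NaCl, 1 mM MgCl2) reacted with compound at 32 μM or 8 μM final, then quenched with formic acid. Intact-protein LC-MS (RapidFire/TOF or Q-Exactive) with charge-envelope deconvolution; % modification from modified vs unmodified peak intensities.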"}
{"smiles": "C=CC(=O)N1CCC2(CCN(c3cc(OCc4ccccn4)cc(-c4c(C)ccc5[nH]ncc45)c3C#N)CC2)C1", "note": "[Compound I-52, 2-(2-acryloyl-2,8-diazaspiro[4.5]decan-8-yl)-6-(5-methyl-1H-indazol-4-yl)-4-(pyridin-2-ylmethoxy) benzonitrile]", "Bind %": "+ (+ indicates binding activity greater than 0% and up to 50%)"}
{"smiles": "CC#CC(=O)N1CCC2(CCN(c3cc(OCc4ccccn4)cc(-c4c(C)ccc5[nH]ncc45)c3C#N)CC2)C1", "note": "[Compound I-53, 2-(2-(but-2-ynoyl)-2,8-diazaspiro[4.5]decan-8-yl)-6-(5-methyl-1H-indazol-4-yl)-4-(pyridin-2-ylmethoxy) benzonitrile]", "Bind %": "+ (+ indicates binding activity greater than 0% and up to 50%)"}
{"smiles": "Cc1ccc2cnn(C)c2c1-c1cc(OCc2ccccn2)cc(N2CCC3(CN(C(=O)/C=C/CN(C)C)C3)C2)c1C#N", "note": "[Compound I-54, (E)-2-(1,6-dimethyl-1H-indazol-7-yl)-6-(2-(4-(dimethylamino)but-2-enoyl)-2,6-diazaspiro[3.4]octan-6-yl)-4-(pyridin-2-ylmethoxy) benzonitrile]", "Bind %": "+++ (+++ indicates binding activity greater than 75%)"}
{"smiles": "CC#CC(=O)N1CCC2(CCN(c3cc(OCc4ccccn4)cc(-c4c(C)ccc5[nH]ncc45)c3C#N)C2)C1", "note": "(stereo not shown) [Compound I-56, 2-(7-(but-2-ynoyl)-2,7-diazaspiro[4.4]nonan-2-yl)-6-(5-methyl-1H-indazol-4-yl)-4-(pyridin-2-ylmethoxy) benzonitrile]", "Bind %": "+ (+ indicates binding activity greater than 0% and up to 50%)"}
{"smiles": "C=CC(=O)N1CC2(CCN(c3ccc(OCCCN(C)C)c(-c4c(C)ccc5[nH]ncc45)c3C#N)C2)C1", "note": "[Compound I-57, 6-(2-acryloyl-2,6-diazaspiro[3.4]octan-6-yl)-3-(3-(dimethylamino)propoxy)-2-(5-methyl-1H-indazol-4-yl)benzonitrile]", "Bind %": "+ (+ indicates binding activity greater than 0% and up to 50%)"}
{"smiles": "C=CC(=O)N1CCC2(CC1)CCN(c1cc(OCc3ccccn3)cc(-c3c(C)ccc4[nH]ncc34)c1C#N)C2", "note": "[Compound I-58, 2-(8-acryloyl-2,8-diazaspiro[4.5]decan-2-yl)-6-(5-methyl-1H-indazol-4-yl)-4-(pyridin-2-ylmethoxy) benzonitrile]", "Bind %": "+ (+ indicates binding activity greater than 0% and up to 50%)"}
{"smiles": "CC#CC(=O)N1CCC2(CC1)CCN(c1cc(OCc3ccccn3)cc(-c3c(C)ccc4[nH]ncc34)c1C#N)C2", "note": "[Compound I-59, 2-(8-(but-2-ynoyl)-2,8-diazaspiro[4.5]decan-2-yl)-6-(5-methyl-1H-indazol-4-yl)-4-(pyridin-2-ylmethoxy) benzonitrile]", "Bind %": "+ (+ indicates binding activity greater than 0% and up to 50%)"}
{"smiles": "C=CC(=O)N1CCC2(CCN(c3cc(OCc4ccccn4)cc(-c4c(C)ccc5[nH]ncc45)c3C#N)C2)C1", "note": "(stereo not shown) [Compound I-61, 2-(7-acryloyl-2,7-diazaspiro[4.4]nonan-2-yl)-6-(5-methyl-1H-indazol-4-yl)-4-(pyridin-2-ylmethoxy) benzonitrile]", "Bind %": "+ (+ indicates binding activity greater than 0% and up to 50%)"}
{"smiles": "C=CC(=O)N1CCC2(CCCN(c3cc(OCc4ccccn4)cc(-c4c(C)ccc5[nH]ncc45)c3C#N)C2)C1", "note": "(stereo not shown) [Compound I-62, 2-(2-acryloyl-2,7-diazaspiro[4.5]decan-7-yl)-6-(5-methyl-1H-indazol-4-yl)-4-(pyridin-2-ylmethoxy) benzonitrile]", "Bind %": "+ (+ indicates binding activity greater than 0% and up to 50%)"}
{"smiles": "CC#CC(=O)N1CCC2(CCCN(c3cc(OCc4ccccn4)cc(-c4c(C)ccc5[nH]ncc45)c3C#N)C2)C1", "note": "(stereo not shown) [Compound I-63, 2-(2-(but-2-ynoyl)-2,7-diazaspiro[4.5]decan-7-yl)-6-(5-methyl-1H-indazol-4-yl)-4-(pyridin-2-ylmethoxy) benzonitrile]", "Bind %": "+ (+ indicates binding activity greater than 0% and up to 50%)"}
{"smiles": "CC#CC(=O)N1CCC2(CC1)CN(c1cc(OCc3ccccn3)cc(-c3c(C)ccc4[nH]ncc34)c1C#N)C2", "note": "[Compound I-64, 2-(7-(but-2-ynoyl)-2,7-diazaspiro[3.5]nonan-2-yl)-6-(5-methyl-1H-indazol-4-yl)-4-(pyridin-2-ylmethoxy) benzonitrile]", "Bind %": "+ (+ indicates binding activity greater than 0% and up to 50%)"}
{"smiles": "C=CC(=O)N1CCC2(CC1)CN(c1cc(OCc3ccccn3)cc(-c3c(C)ccc4[nH]ncc34)c1C#N)C2", "note": "[Compound I-65, 2-(7-acryloyl-2,7-diazaspiro[3.5]nonan-2-yl)-6-(5-methyl-1H-indazol-4-yl)-4-(pyridin-2-ylmethoxy) benzonitrile]", "Bind %": "+ (+ indicates binding activity greater than 0% and up to 50%)"}
{"smiles": "C=CC(=O)N1CCCC2(C1)CN(c1cc(OCc3ccccn3)cc(-c3c(C)ccc4[nH]ncc34)c1C#N)C2", "note": "[Compound I-66, 2-(6-acryloyl-2,6-diazaspiro[3.5]nonan-2-yl)-6-(5-methyl-1H-indazol-4-yl)-4-(pyridin-2-ylmethoxy) benzonitrile]", "Bind %": "+ (+ indicates binding activity greater than 0% and up to 50%)"}
{"smiles": "CC#CC(=O)N1CCCC2(C1)CN(c1cc(OCc3ccccn3)cc(-c3c(C)ccc4[nH]ncc34)c1C#N)C2", "note": "[Compound I-67, 2-(6-(but-2-ynoyl)-2,6-diazaspiro[3.5]nonan-2-yl)-6-(5-methyl-1H-indazol-4-yl)-4-(pyridin-2-ylmethoxy) benzonitrile]", "Bind %": "+ (+ indicates binding activity greater than 0% and up to 50%)"}
{"smiles": "Cc1ccc2cnn(C)c2c1-c1cc(N2CCCC(O)C2)cc(N2CCC3(CN(C(=O)/C=C/CN(C)C)C3)C2)c1C#N", "note": "(stereo not shown) [Compound I-69, (E)-2-(1,6-dimethyl-1H-indazol-7-yl)-6-(2-(4-(dimethylamino)but-2-enoyl)-2,6-diazaspiro[3.4]octan-6-yl)-4-(3-hydroxypiperidin-1-yl)benzonitrile]", "Bind %": "+ (+ indicates binding activity greater than 0% and up to 50%)"}
{"smiles": "Cc1ccc2[nH]ncc2c1-c1cc(N2CCCC(O)C2)cc(N2CCC3(CN(C(=O)/C=C/CN(C)C)C3)C2)c1C#N", "note": "(stereo not shown) [Compound I-70, (E)-2-(2-(4-(dimethylamino)but-2-enoyl)-2,6-diazaspiro[3.4]octan-6-yl)-4-(3-hydroxypiperidin-1-yl)-6-(5-methyl-1H-indazol-4-yl)benzonitrile]", "Bind %": "++ (++ indicates binding activity from 50 to 75%)"}
{"smiles": "CC#CC(=O)N1CC2(C1)CN(c1cc(OCc3ccccn3)cc(-c3c(C)ccc4[nH]ncc34)c1C#N)C2", "note": "[Compound I-73, 2-(6-(but-2-ynoyl)-2,6-diazaspiro[3.3]heptan-2-yl)-6-(5-methyl-1H-indazol-4-yl)-4-(pyridin-2-ylmethoxy) benzonitrile]", "Bind %": "+ (+ indicates binding activity greater than 0% and up to 50%)"}
{"smiles": "CC#CC(=O)N1CCCC2(CCN(c3cc(OCc4ccccn4)cc(-c4c(C)ccc5[nH]ncc45)c3C#N)C2)C1", "note": "(stereo not shown) [Compound I-74, 2-(7-(but-2-ynoyl)-2,7-diazaspiro[4.5]decan-2-yl)-6-(5-methyl-1H-indazol-4-yl)-4-(pyridin-2-ylmethoxy) benzonitrile]", "Bind %": "+ (+ indicates binding activity greater than 0% and up to 50%)"}
{"smiles": "C=CC(=O)N1CCCC2(CCN(c3cc(OCc4ccccn4)cc(-c4c(C)ccc5[nH]ncc45)c3C#N)C2)C1", "note": "(stereo not shown) [Compound I-75, 2-(7-acryloyl-2,7-diazaspiro[4.5]decan-2-yl)-6-(5-methyl-1H-indazol-4-yl)-4-(pyridin-2-ylmethoxy) benzonitrile]", "Bind %": "+ (+ indicates binding activity greater than 0% and up to 50%)"}
{"smiles": "C=CC(=O)N1CC2(CCCN(c3cc(OCc4ccccn4)cc(-c4c(C)ccc5[nH]ncc45)c3C#N)C2)C1", "note": "[Compound I-78, 2-(2-acryloyl-2,6-diazaspiro[3.5]nonan-6-yl)-6-(5-methyl-1H-indazol-4-yl)-4-(pyridin-2-ylmethoxy) benzonitrile]", "Bind %": "+ (+ indicates binding activity greater than 0% and up to 50%)"}
{"smiles": "CC#CC(=O)N1CC2(CCCN(c3cc(OCc4ccccn4)cc(-c4c(C)ccc5[nH]ncc45)c3C#N)C2)C1", "note": "[Compound I-79, 2-(2-(but-2-ynoyl)-2,6-diazaspiro[3.5]nonan-6-yl)-6-(5-methyl-1H-indazol-4-yl)-4-(pyridin-2-ylmethoxy) benzonitrile]", "Bind %": "+ (+ indicates binding activity greater than 0% and up to 50%)"}
{"molecular_target": "T1, KRAS G12C 1-169, his-tagged protein, GDP-loaded", "assay": "Biochemical assay: covalent modification of KRAS G12C measured by mass spectrometry (RapidFire/TOF or Q-Exactive)", "type": "binding", "conditions": "tested at a concentration of 8 μM", "outline": "as §1"}
{"smiles": "Cc1ccc2[nH]ncc2c1-c1cc(OCc2ccccn2)cc(N2CCC3(CN(C(=O)/C=C/CN(C)C)C3)C2)c1C#N", "note": "[Compound I-60, (E)-2-(2-(4-(dimethylamino)but-2-enoyl)-2,6-diazaspiro[3.4]octan-6-yl)-6-(5-methyl-1H-indazol-4-yl)-4-(pyridin-2-ylmethoxy) benzonitrile]", "Bind %": "+ (+ indicates binding activity greater than 0% and up to 50%)"}
{"smiles": "C=CC(=O)N1CC2(CCN(c3cc(OCc4ccccn4)cc(-c4c(C)ccc5[nH]nc(C)c45)c3C#N)C2)C1", "note": "[Compound I-71, 2-(2-acryloyl-2,6-diazaspiro[3.4]octan-6-yl)-6-(3,5-dimethyl-1H-indazol-4-yl)-4-(pyridin-2-ylmethoxy) benzonitrile]", "Bind %": "+++ (+++ indicates binding activity greater than 75%)"}
{"smiles": "C=CC(=O)N1CC2(C1)CN(c1cc(OCc3ccccn3)cc(-c3c(C)ccc4[nH]ncc34)c1C#N)C2", "note": "[Compound I-72, 2-(6-acryloyl-2,6-diazaspiro[3.3]heptan-2-yl)-6-(5-methyl-1H-indazol-4-yl)-4-(pyridin-2-ylmethoxy) benzonitrile]", "Bind %": "+++ (+++ indicates binding activity greater than 75%)"}
{"smiles": "C=CC(=O)N1CC2(CCN(c3cc(N4CCCC(O)C4)cc(-c4c(C)ccc5[nH]nc(C)c45)c3C#N)C2)C1", "note": "(stereo not shown) [Compound I-76, 2-(2-acryloyl-2,6-diazaspiro[3.4]octan-6-yl)-6-(3,5-dimethyl-1H-indazol-4-yl)-4-(3-hydroxypiperidin-1-yl)benzonitrile]", "Bind %": "++ (++ indicates binding activity from 50 to 75%)"}
